Assay results from patent US6355799B1, “Substituted benzene compounds, process for their preparation, and herbicidal and defoliant compositions containing them” (ISK Americas Incorporated, priority 1997, dated 2002).

Experiments:
Assay type in all cases: in vivo
[1] = test system: field corn (Zea mays L., var. Dekalb 535, CORN); assay: Pre-emerge test, crop safety; details: for Pre-emerge phytotoxicity rating (0-100), crop damage, CORN: rated 14 days after application, 0 = no damage, 100 = complete death; for phytotoxicity rating CORN (crop damage): pre-emerge, 14 days after application, scale 0-100
Procedure, shortened: (§1)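 Compounds in acetone were track-sprayed at 15-1000 g ai/ha (187 l/ha) on sandy loam pots: pre-emerge one day after seeding, post-emerge at 2-3 leaf stage with 0.25% v/v non-ionic surfactant. Phytotoxicity was rated 14 days later on a 0 (no damage) to 100 (complete death) scale.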

[2] = test system: upland rice (Oryza sp., var. Tebonnet, RICE); assay: Pre-emerge test, crop safety; details: for Pre-emerge phytotoxicity rating (0-100), crop damage, RICE: rated 14 days after application, 0 = no damage, 100 = complete death; for phytotoxicity rating RICE (crop damage): pre-emerge, 14 days after application, scale 0-100
Procedure, shortened: as §1

[3] = test system: sicklepod (Cassia obtusifolia, CASOB); assay: Pre-emerge test, greenhouse herbicide activity screening; details: for Pre-emerge Herbicidal Activity, phytotoxicity rating (0-100), CASOB: rated 14 days after application, 0 = no damage, 100 = complete death; for phytotoxicity rating CASOB: pre-emerge, 14 days after application, scale 0-100
Procedure, shortened: (§2)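 Applied at 15–1000 g ai/ha from acetone in 187 l/ha spray volume. Post-emergence applications included 0.25% v/v non-ionic surfactant and reached plants sown 8–21 days before. Pre-emergence applications were incorporated by surface watering. Efficacy or crop damage was rated on a 0–100 scale after 14 days.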

[4] = test system: ivyleaf morningglory (Ipomoea hederacea, IPOHE); assay: as above; details: for Pre-emerge Herbicidal Activity, phytotoxicity rating (0-100), IPOHE: rated 14 days after application, 0 = no damage, 100 = complete death; for phytotoxicity rating IPOHE: pre-emerge, 14 days after application, scale 0-100
Procedure, shortened: as §2

[5] = test system: green foxtail (Setaria viridis, SETVI); assay: as above; details: for Pre-emerge Herbicidal Activity, phytotoxicity rating (0-100), SETVI: rated 14 days after application, 0 = no damage, 100 = complete death; for phytotoxicity rating SETVI: pre-emerge, 14 days after application, scale 0-100
Procedure, shortened: as §2

[6] = test system: barnyardgrass (Echinochloa crus-galli, ECHCG); assay: as above; details: for Pre-emerge Herbicidal Activity, phytotoxicity rating (0-100), ECHCG: rated 14 days after application, 0 = no damage, 100 = complete death; for phytotoxicity rating ECHCG: pre-emerge, 14 days after application, scale 0-100
Procedure, shortened: as §2

[7] = test system: large crabgrass (Digitaria sanguinalis, DIGSA); assay: as above; details: for Pre-emerge Herbicidal Activity, phytotoxicity rating (0-100), DIGSA: rated 14 days after application, 0 = no damage, 100 = complete death; for phytotoxicity rating DIGSA: pre-emerge, 14 days after application, scale 0-100
Procedure, shortened: as §2

[8] = test system: velvetleaf (Abutilon theophrasti, ABUTH); assay: as above; details: for Pre-emerge Herbicidal Activity, phytotoxicity rating (0-100), ABUTH: rated 14 days after application, 0 = no damage, 100 = complete death; for phytotoxicity rating ABUTH: pre-emerge, 14 days after application, scale 0-100
Procedure, shortened: as §2

[9] = test system: lambsquarters (Chenopodium album, CHEAL); assay: as above; details: for Pre-emerge Herbicidal Activity, phytotoxicity rating (0-100), CHEAL: rated 14 days after application, 0 = no damage, 100 = complete death; for phytotoxicity rating CHEAL: pre-emerge, 14 days after application, scale 0-100
Procedure, shortened: as §2

[10] = test system: johnsongrass (Sorghum halepense, SORHA); assay: as above; details: for Pre-emerge Herbicidal Activity, phytotoxicity rating (0-100), SORHA: rated 14 days after application, 0 = no damage, 100 = complete death; for phytotoxicity rating SORHA: pre-emerge, 14 days after application, scale 0-100
Procedure, shortened: as §2

[11] = test system: sicklepod (Cassia obtusifolia, CASOB); assay: Post-emerge test, greenhouse herbicide activity screening; details: post-emerge, 14 days after application, rating scale 0-100
Procedure, shortened: as §1

[12] = test system: redroot pigweed (Amaranthus retroflexus, AMARE); assay: as above; details: post-emerge, 14 days after application, rating scale 0-100
Procedure, shortened: as §1

[13] = test system: ivyleaf morningglory (Ipomoea hederacea, IPOHE); assay: as above; details: post-emerge, 14 days after application, rating scale 0-100
Procedure, shortened: as §1

[14] = test system: green foxtail (Setaria viridis, SETVI); assay: as above; details: post-emerge, 14 days after application, rating scale 0-100
Procedure, shortened: as §1

[15] = test system: barnyardgrass (Echinochloa crus-galli, ECHCG); assay: as above; details: post-emerge, 14 days after application, rating scale 0-100
Procedure, shortened: as §1

[16] = test system: large crabgrass (Digitaria sanguinalis, DIGSA); assay: as above; details: post-emerge, 14 days after application, rating scale 0-100
Procedure, shortened: as §1

[17] = test system: velvetleaf (Abutilon theophrasti, ABUTH); assay: as above; details: post-emerge, 14 days after application, rating scale 0-100
Procedure, shortened: as §1

[18] = test system: lambsquarters (Chenopodium album, CHEAL); assay: as above; details: post-emerge, 14 days after application, rating scale 0-100
Procedure, shortened: as §1

[19] = test system: johnsongrass (Sorghum halepense, SORHA); assay: as above; details: post-emerge, 14 days after application, rating scale 0-100
Procedure, shortened: as §1

[20] = test system: field corn (Zea mays L., var. Dekalb 535, CORN); assay: Post-emerge test, crop safety; details: post-emerge, 14 days after application, rating scale 0-100
Procedure, shortened: as §2

[21] = test system: upland rice (Oryza sp., var. Tebonnet, RICE); assay: Post-emerge test, crop safety; details: post-emerge, 14 days after application, rating scale 0-100
Procedure, shortened: as §2

[22] = test system: redroot pigweed (Amaranthus retroflexus, AMARE); assay: Pre-emerge test, greenhouse herbicide activity screening; details: for Pre-emerge Herbicidal Activity, phytotoxicity rating (0-100), AMARE: rated 14 days after application, 0 = no damage, 100 = complete death; for phytotoxicity rating AMARE: pre-emerge, 14 days after application, scale 0-100
Procedure, shortened: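 Herbicidal damage is scored 0 (none) to 100 (complete plant death) two weeks after a simulated field spray. Rates span 15–1000 g ai/ha, delivered in acetone at 187 l/ha. For post-emergence treatments, plants have 2–3 leaves and the spray carries 0.25% v/v non-ionic surfactant.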

COc1c(Cl)cc(F)c(-n2c(=O)cc(C(F)(F)F)n(C)c2=O)c1NC(=O)C(=O)c1ccccc1 [2-121]
Pre-emerge phytotoxicity rating (0-100), crop damage, CORN ([1]; 63 g ai/ha): 0 | Pre-emerge phytotoxicity rating (0-100), crop damage, CORN ([1]; 250 g ai/ha): 10 | Pre-emerge phytotoxicity rating (0-100), crop damage, RICE ([2]; 63 g ai/ha): 0 | Pre-emerge phytotoxicity rating (0-100), crop damage, RICE ([2]; 250 g ai/ha): 0 | Pre-emerge Herbicidal Activity, phytotoxicity rating (0-100), CASOB ([3]; 63 g ai/ha): 0 | Pre-emerge Herbicidal Activity, phytotoxicity rating (0-100), CASOB ([3]; 250 g ai/ha): 50 | Pre-emerge Herbicidal Activity, phytotoxicity rating (0-100), IPOHE ([4]; 63 g ai/ha): 0 | Pre-emerge Herbicidal Activity, phytotoxicity rating (0-100), IPOHE ([4]; 250 g ai/ha): 90 | Pre-emerge Herbicidal Activity, phytotoxicity rating (0-100), SETVI ([5]; 63 g ai/ha): 0 | Pre-emerge Herbicidal Activity, phytotoxicity rating (0-100), SETVI ([5]; 250 g ai/ha): 60 | Pre-emerge Herbicidal Activity, phytotoxicity rating (0-100), ECHCG ([6]; 63 g ai/ha): 0 | Pre-emerge Herbicidal Activity, phytotoxicity rating (0-100), ECHCG ([6]; 250 g ai/ha): 0 | Pre-emerge Herbicidal Activity, phytotoxicity rating (0-100), DIGSA ([7]; 63 g ai/ha): 0 | Pre-emerge Herbicidal Activity, phytotoxicity rating (0-100), DIGSA ([7]; 250 g ai/ha): 30 | Pre-emerge Herbicidal Activity, phytotoxicity rating (0-100), ABUTH ([8]; 63 g ai/ha): 100 | Pre-emerge Herbicidal Activity, phytotoxicity rating (0-100), ABUTH ([8]; 250 g ai/ha): 100 | Pre-emerge Herbicidal Activity, phytotoxicity rating (0-100), CHEAL ([9]; 63 g ai/ha): 80 | Pre-emerge Herbicidal Activity, phytotoxicity rating (0-100), CHEAL ([9]; 250 g ai/ha): 100 | Pre-emerge Herbicidal Activity, phytotoxicity rating (0-100), SORHA ([10]; 63 g ai/ha): 0 | Pre-emerge Herbicidal Activity, phytotoxicity rating (0-100), SORHA ([10]; 250 g ai/ha): 0 | phytotoxicity rating CASOB ([11]; 63 g ai/ha): 10 | phytotoxicity rating CASOB ([11]; 250 g ai/ha): 60 | phytotoxicity rating AMARE ([12]; 63 g ai/ha): 90 | phytotoxicity rating AMARE ([12]; 250 g ai/ha): 100 | phytotoxicity rating IPOHE ([13]; 63 g ai/ha): 100 | phytotoxicity rating IPOHE ([13]; 250 g ai/ha): 100 | phytotoxicity rating SETVI ([14]; 63 g ai/ha): 0 | phytotoxicity rating SETVI ([14]; 250 g ai/ha): 20 | phytotoxicity rating ECHCG ([15]; 63 g ai/ha): 0 | phytotoxicity rating ECHCG ([15]; 250 g ai/ha): 0 | phytotoxicity rating DIGSA ([16]; 63 g ai/ha): 0 | phytotoxicity rating DIGSA ([16]; 250 g ai/ha): 10 | phytotoxicity rating ABUTH ([17]; 63 g ai/ha): 70 | phytotoxicity rating ABUTH ([17]; 250 g ai/ha): 100 | phytotoxicity rating CHEAL ([18]; 63 g ai/ha): 60 | phytotoxicity rating CHEAL ([18]; 250 g ai/ha): 80 | phytotoxicity rating SORHA ([19]; 63 g ai/ha): 0 | phytotoxicity rating SORHA ([19]; 250 g ai/ha): 10 | phytotoxicity rating CORN ([20]; 63 g ai/ha): 10 | phytotoxicity rating CORN ([20]; 250 g ai/ha): 20 | phytotoxicity rating RICE ([21]; 63 g ai/ha): 15 | phytotoxicity rating RICE ([21]; 250 g ai/ha): 25 | Pre-emerge Herbicidal Activity, phytotoxicity rating (0-100), AMARE ([22]; 63 g ai/ha): 100 | Pre-emerge Herbicidal Activity, phytotoxicity rating (0-100), AMARE ([22]; 250 g ai/ha): 100

COc1c(Cl)cc(F)c(-n2c(=O)cc(C(F)(F)F)n(C)c2=O)c1NC(=O)c1c(C)cccc1C [2-124]
phytotoxicity rating CORN (crop damage) ([1]; 63 g ai/ha): 0 | phytotoxicity rating CORN (crop damage) ([1]; 250 g ai/ha): 0 | phytotoxicity rating RICE (crop damage) ([2]; 63 g ai/ha): 0 | phytotoxicity rating RICE (crop damage) ([2]; 250 g ai/ha): 10 | phytotoxicity rating CASOB ([3]; 63 g ai/ha): 0 | phytotoxicity rating CASOB ([3]; 250 g ai/ha): 20 | phytotoxicity rating IPOHE ([4]; 63 g ai/ha): 0 | phytotoxicity rating IPOHE ([4]; 250 g ai/ha): 20 | phytotoxicity rating SETVI ([5]; 63 g ai/ha): 0 | phytotoxicity rating SETVI ([5]; 250 g ai/ha): 10 | phytotoxicity rating ECHCG ([6]; 63 g ai/ha): 0 | phytotoxicity rating ECHCG ([6]; 250 g ai/ha): 0 | phytotoxicity rating DIGSA ([7]; 63 g ai/ha): 0 | phytotoxicity rating DIGSA ([7]; 250 g ai/ha): 0 | phytotoxicity rating ABUTH ([8]; 63 g ai/ha): 0 | phytotoxicity rating ABUTH ([8]; 250 g ai/ha): 80 | phytotoxicity rating CHEAL ([9]; 63 g ai/ha): 20 | phytotoxicity rating CHEAL ([9]; 250 g ai/ha): 80 | phytotoxicity rating SORHA ([10]; 63 g ai/ha): 0 | phytotoxicity rating SORHA ([10]; 250 g ai/ha): 0 | CASOB phytotoxicity rating ([11]; 63 g ai/ha): 0 | CASOB phytotoxicity rating ([11]; 250 g ai/ha): 20 | AMARE phytotoxicity rating ([12]; 63 g ai/ha): 30 | AMARE phytotoxicity rating ([12]; 250 g ai/ha): 90 | IPOHE phytotoxicity rating ([13]; 63 g ai/ha): 20 | IPOHE phytotoxicity rating ([13]; 250 g ai/ha): 30 | SETVI phytotoxicity rating ([14]; 63 g ai/ha): 0 | SETVI phytotoxicity rating ([14]; 250 g ai/ha): 0 | ECHCG phytotoxicity rating ([15]; 63 g ai/ha): 0 | ECHCG phytotoxicity rating ([15]; 250 g ai/ha): 0 | DIGSA phytotoxicity rating ([16]; 63 g ai/ha): 0 | DIGSA phytotoxicity rating ([16]; 250 g ai/ha): 0 | ABUTH phytotoxicity rating ([17]; 63 g ai/ha): 40 | ABUTH phytotoxicity rating ([17]; 250 g ai/ha): 95 | CHEAL phytotoxicity rating ([18]; 63 g ai/ha): 30 | CHEAL phytotoxicity rating ([18]; 250 g ai/ha): 50 | SORHA phytotoxicity rating ([19]; 63 g ai/ha): 0 | SORHA phytotoxicity rating ([19]; 250 g ai/ha): 0 | CORN phytotoxicity rating (crop damage) ([20]; 63 g ai/ha): 0 | CORN phytotoxicity rating (crop damage) ([20]; 250 g ai/ha): 5 | RICE phytotoxicity rating (crop damage) ([21]; 63 g ai/ha): 0 | RICE phytotoxicity rating (crop damage) ([21]; 250 g ai/ha): 0 | phytotoxicity rating AMARE ([22]; 63 g ai/ha): 40 | phytotoxicity rating AMARE ([22]; 250 g ai/ha): 100
